In this assay the target is Histamine H3 receptor (Rattus norvegicus, UniProt Q9QYN8). Description: In vitro Histamine H3 receptor antagonist activity in an assay with K+-evoked depolarization-induced release of [3H]histamine from synaptosomes of rat cerebral cortex. It is filed as functional, subcellular, Brain.

This note sets out measurements from ChEMBL document CHEMBL1130909, “General construction pattern of histamine H3-receptor antagonists: change of a paradigm” (Bioorg Med Chem Lett, 1998).

Usually Ki stands for a measure of affinity in units of concentration, obtained from inhibition or displacement. High values mean weaker binding, low ones tighter binding.

Histamine H3 receptor, sequence (Q9QYN8 whole entry): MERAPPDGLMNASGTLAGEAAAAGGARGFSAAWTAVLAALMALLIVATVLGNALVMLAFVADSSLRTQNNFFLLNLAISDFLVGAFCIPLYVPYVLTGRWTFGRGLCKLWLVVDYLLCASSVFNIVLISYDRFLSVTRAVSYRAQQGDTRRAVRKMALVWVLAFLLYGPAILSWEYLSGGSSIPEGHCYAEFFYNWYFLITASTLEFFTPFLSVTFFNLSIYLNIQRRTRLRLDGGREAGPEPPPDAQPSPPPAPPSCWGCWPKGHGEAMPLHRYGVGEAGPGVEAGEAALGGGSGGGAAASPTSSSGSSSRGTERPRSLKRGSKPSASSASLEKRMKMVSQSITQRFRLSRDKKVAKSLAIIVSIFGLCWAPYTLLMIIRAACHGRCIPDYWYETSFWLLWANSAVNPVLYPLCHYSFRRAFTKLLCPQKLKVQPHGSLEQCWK

In turn, `C(=C\CCc1c[nH]cn1)/CCc1ccccc1` registered an inhibitory constant (Ki) of 42 nM. For `CCCCCCCCCc1c[nH]cn1` the value was 400 nM. Next, `CCCCCCC/C=C\c1c[nH]cn1`: above 500 nM.
